Like-named read-outs stand apart in the source and are kept apart here. Each block holds one compound with its values, some of them ahead of it.
Legend:
[1] = target: T1, CB2 (Homo sapiens, UniProt P34972); design: method as in PMID 30951717; details: competition with [3H]CP55,940; determined previously; cited from earlier work
T1 construct: expressed in transfected cells; host or cells: HEK293T cells, calcium phosphate transfection, membrane preparation

[2] = target: T2, CB1 receptor (Homo sapiens, UniProt P21554); design: method as in PMID 30951717; details: cited from earlier work
T2 construct: expressed in transfected cells; host or cells: HEK293T cells (called 'HEK293 cells' in Results), calcium phosphate transfection, membrane preparation
T2 sequence (P21554 whole entry): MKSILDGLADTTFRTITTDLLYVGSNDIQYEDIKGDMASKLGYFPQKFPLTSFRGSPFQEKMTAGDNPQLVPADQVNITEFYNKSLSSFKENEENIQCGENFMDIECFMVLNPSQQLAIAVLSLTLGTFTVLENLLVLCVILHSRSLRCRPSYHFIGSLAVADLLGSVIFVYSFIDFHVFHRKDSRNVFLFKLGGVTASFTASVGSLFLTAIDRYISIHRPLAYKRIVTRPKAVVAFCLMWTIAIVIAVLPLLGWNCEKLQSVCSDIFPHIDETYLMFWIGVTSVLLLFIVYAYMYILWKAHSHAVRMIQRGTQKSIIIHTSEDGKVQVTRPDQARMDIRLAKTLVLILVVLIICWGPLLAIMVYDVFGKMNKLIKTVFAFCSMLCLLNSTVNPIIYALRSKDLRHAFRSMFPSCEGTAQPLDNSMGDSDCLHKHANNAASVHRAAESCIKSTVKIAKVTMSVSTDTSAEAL

[3] = target: T1, CB2; design: method as in PMID 30951717; details: stimulation of [35S]GTPγS binding; determined previously; cited from earlier work
[4] = tested on: TNF-α mRNA in Jurkat cells; design: method as in PMID 33712283; details: concentration not given; cited from earlier work
[5] = tested on: TNF-α production in Jurkat cells; design: method as in PMID 33712283; details: concentration not given; cited from earlier work
[6] = target: T1, CB2; test: Competitive [3H]CP55,940 radioligand binding, CB2-transfected HEK293T cell membrane
Excerpt: (§1) To evaluate binding affinity of ABK5 analogs that have a difference in the position of substituents in the N-phenyl ring (Figure 1), we performed competitive radiolabeled ligand binding assays using cell membrane from HEK293T cells transfected with human CB2 receptors. […] ABK5-1, ABK5-2, and ABK5-6 dose-dependently competed with [^3H]CP55,940 and decreased the specific binding of the radiolabeled agonist, which reflects the binding of test compounds to CB2. […] Therefore, ABK5-5 was not considered for further evaluation in this study. […] We also examined CB2 selectivity (versus CB1) of the three compounds by performing similar binding assays using membrane from CB1 expressing HEK293 cells instead of CB2 expressing cells. […] Therefore, ABK5-1 and 5-2 maintained the CB2 subtype selectivity of ABK5.
(§2) In the experiment, 1 × 10^6 HEK293T cells were seeded in a 10-cm cell culture dish and cultured for 24 h. Cells were transfected with CB1 or CB2 using the calcium phosphate method. Approximately one day after transfection, cells were harvested and centrifuged at 4 °C for 5 min at 500× g. The pellet was washed with phosphate buffered saline (PBS) twice and resuspended in PBS containing 1% protease-inhibitor cocktail (Sigma-Aldrich, St. Louis, MO, USA) consisting of 104 mM 4-(2-aminoethyl) benzene sulfonyl fluoride hydrochloride (AEBSF), 80 μM apronitin, 4 mM bestatin, 1.64 mM E-64, 2 mM leupeptin, 1.5 mM pepstatin A. Then the cells were subjected to nitrogen cavitation under 750 psi for 5 min using a Parr cell disruption bomb. The lysate was centrifuged at 500× g for 10 min at 4 °C and the supernatant was spun at 116,000× g for 45 min at 4 °C. The pellet, consisting of the cell membrane expressing CB1 or CB2, was resuspended in TME buffer solution (25 mM Tris-HCl, 5 mM MgCl2, and 1 mM EDTA, pH 7.4) with 7% (w/v) sucrose/TME buffer. The concentration of the membrane protein was determined by the Bradford assay (Bradford, 1976).
Membrane protein was mixed with 1 nM to 10 μM of the test compounds and 1 nM [^3H]CP55,940 (164.9 Ci/mmol; PerkinElmer life Sciences, Waltham, MA, USA), and TME buffer supplemented with 0.2% BSA was used to bring the total volume to 200 μL. [^3H]CP55,940 acts as tracer and agonists that bind the target receptor compete with [^3H]CP55,940. Samples were incubated for 1 h at 30 °C. Ten μM unlabeled CP55,940 was used to determine non-specific binding. […] A Beckman Coulter 6500 liquid scintillation counter was used to measure the radioactivity of the samples.
Results are presented as the mean ± standard deviation (S.D.). […] The Ki values in the ligand binding assay were calculated using the Prism software (GraphPad Software Inc., San Diego, CA, USA), using IC50 values obtained from non-linear regression fitted to the one-site binding model. […]

[7] = target: T2, CB1 receptor; test: Competitive [3H]CP55,940 radioligand binding, membrane from CB1 expressing HEK293 cells
Excerpt: as §1, §2
Membrane protein was mixed with 1 nM to 10 μM of the test compounds and 1 nM [^3H]CP55,940 (164.9 Ci/mmol; PerkinElmer life Sciences, Waltham, MA, USA), and TME buffer supplemented with 0.2% BSA was used to bring the total volume to 200 μL. [^3H]CP55,940 acts as tracer and agonists that bind the target receptor compete with [^3H]CP55,940. Samples were incubated for 1 h at 30 °C. Ten μM unlabeled CP55,940 was used to determine non-specific binding. Reactions were stopped by adding 5% BSA/TME buffer (w/v) and samples were filtered through a Brandel cell harvester using Whatman GF/C filter paper. Ultima Gold XR liquid scintillation cocktail (PerkinElmer Life Sciences, Waltham, MA, USA) was then added and vortexed. A Beckman Coulter 6500 liquid scintillation counter was used to measure the radioactivity of the samples.
Results are presented as the mean ± standard deviation (S.D.). The ligand binding assays and the GTPγS binding assays were both carried out in duplicate for three independent experiments. The Ki values in the ligand binding assay were calculated using the Prism software (GraphPad Software Inc., San Diego, CA, USA), using IC50 values obtained from non-linear regression fitted to the one-site binding model. The Cheng-Prusoff equation [48], which is used for calculation of Ki value is shown below. (1) Ki=IC50/1+L/Kd

[8] = target: T1, CB2; test: [35S]GTPγS binding assay (G-protein coupling), CB2 containing HEK293T cell membrane; format: biochemical; details: stimulation of [35S]GTPγS binding; mean ± S.D.
Experimental: We also examined if the compounds can induce G-protein coupling and act as CB2 agonists. Three compounds, ABK5-1, ABK5-2, and ABK5-6, were subjected to [^35S]GTPγS binding assays. Increasing concentrations, from 1 nM to 10 μM of the test compounds, were incubated with CB2 containing HEK293T cell membrane and [^35S]GTPγS, which binds to Gi/o in the membrane upon CB2 activation and G-protein coupling. All three compounds stimulated dose-dependent increases of specific [^35S]GTPγS binding (Figure 3).
as §2
GTPγS binding assay buffer ([…], pH 7.4, 3 mM MgCl2, 0.2 mM EGTA, and 100 mM NaCl) membrane protein, 1 nM to 10 μM of the test compounds, 0.1 nM [^35S] GTPγS (1250 Ci/mmol; PerkinElmer Life Sciences, Waltham, MA, USA), 0.1% fatty acid free BSA (w/v), 10 μM guanosine diphosphate (GDP) and GTPγS was incubated for 1 h at 30 °C with shaking. […] A Beckman Coulter 6500 liquid scintillation counter was used to measure the radioactivity of the samples. […]

T1 sequence (P34972 whole entry): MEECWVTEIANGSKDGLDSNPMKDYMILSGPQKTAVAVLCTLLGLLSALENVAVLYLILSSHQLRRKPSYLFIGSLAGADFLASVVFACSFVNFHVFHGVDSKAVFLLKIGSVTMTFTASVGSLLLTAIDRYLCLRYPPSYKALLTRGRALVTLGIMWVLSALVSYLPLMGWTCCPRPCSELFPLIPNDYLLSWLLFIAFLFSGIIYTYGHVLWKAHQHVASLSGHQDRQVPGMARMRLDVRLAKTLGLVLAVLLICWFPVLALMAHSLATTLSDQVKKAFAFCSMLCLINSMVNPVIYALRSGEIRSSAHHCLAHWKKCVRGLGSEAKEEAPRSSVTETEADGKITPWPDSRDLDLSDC

Compound: CCOC(=O)c1ccccc1NC(=O)CN(c1cccc(C)c1C)S(=O)(=O)c1ccccc1 [ABK5, ethyl 2(2-(N-(2,3-dimethylphenyl)phenylsulfonamido)acetamido)benzoate]
Ki [1]: 16 ± 14 nM
Ki CB1 (CP55,940) ([2]; N.B. = no specific binding detected up to 10 μM, determined previously): N.B. ^c
CB1 binding: no binding detected up to [2]: > 10 µM
EC50 [3]: 4 ± 3 nM
decrease of TNF-α mRNA [4]: 33%
decrease of TNF-α protein level [5]: 30%

CB2 binding, extent as % of total binding ([6]; data not shown, Ki not calculated): ≤ 60%
Compound: CCOC(=O)c1ccc(NC(=O)CN(c2cccc(C)c2C)S(=O)(=O)c2ccccc2)cc1 [ABK5-5]

Ki ([6]; competition with [3H]CP55,940, mean ± S.D.): 14 ± 2 nM
CB1 binding (in words) [7]: weak CB1 binding in the micromolar range
Ki ([7]; competition with [3H]CP55,940, N.B. = no specific binding detected up to 10 μM of test compounds): > 1000 nM
EC50 [8]: 10 ± 5 nM
Compound: CCOC(=O)c1ccccc1NC(=O)CN(c1cc(C)ccc1C)S(=O)(=O)c1ccccc1 [ABK5-6]

— PMC8073686, “Characterization of Subtype Selective Cannabinoid CB2 Receptor Agonists as Potential Anti-Inflammatory Agents” (Pharmaceuticals, 2021)
